The results in this text go back to patent US10717716B2, “1,3,4-oxadiazole derivative compounds as histone deacetylase 6 inhibitor, and the pharmaceutical composition comprising the same” (Chong Kun Dang Pharmaceutical Corp., priority 2015, dated 2020).

This assay has as its target T1, human recombinant HDAC6 (Homo sapiens, UniProt Q9UBN7).
T1 construct: purchased Calbiochem 382180
T1 sequence (Q9UBN7 1-1215): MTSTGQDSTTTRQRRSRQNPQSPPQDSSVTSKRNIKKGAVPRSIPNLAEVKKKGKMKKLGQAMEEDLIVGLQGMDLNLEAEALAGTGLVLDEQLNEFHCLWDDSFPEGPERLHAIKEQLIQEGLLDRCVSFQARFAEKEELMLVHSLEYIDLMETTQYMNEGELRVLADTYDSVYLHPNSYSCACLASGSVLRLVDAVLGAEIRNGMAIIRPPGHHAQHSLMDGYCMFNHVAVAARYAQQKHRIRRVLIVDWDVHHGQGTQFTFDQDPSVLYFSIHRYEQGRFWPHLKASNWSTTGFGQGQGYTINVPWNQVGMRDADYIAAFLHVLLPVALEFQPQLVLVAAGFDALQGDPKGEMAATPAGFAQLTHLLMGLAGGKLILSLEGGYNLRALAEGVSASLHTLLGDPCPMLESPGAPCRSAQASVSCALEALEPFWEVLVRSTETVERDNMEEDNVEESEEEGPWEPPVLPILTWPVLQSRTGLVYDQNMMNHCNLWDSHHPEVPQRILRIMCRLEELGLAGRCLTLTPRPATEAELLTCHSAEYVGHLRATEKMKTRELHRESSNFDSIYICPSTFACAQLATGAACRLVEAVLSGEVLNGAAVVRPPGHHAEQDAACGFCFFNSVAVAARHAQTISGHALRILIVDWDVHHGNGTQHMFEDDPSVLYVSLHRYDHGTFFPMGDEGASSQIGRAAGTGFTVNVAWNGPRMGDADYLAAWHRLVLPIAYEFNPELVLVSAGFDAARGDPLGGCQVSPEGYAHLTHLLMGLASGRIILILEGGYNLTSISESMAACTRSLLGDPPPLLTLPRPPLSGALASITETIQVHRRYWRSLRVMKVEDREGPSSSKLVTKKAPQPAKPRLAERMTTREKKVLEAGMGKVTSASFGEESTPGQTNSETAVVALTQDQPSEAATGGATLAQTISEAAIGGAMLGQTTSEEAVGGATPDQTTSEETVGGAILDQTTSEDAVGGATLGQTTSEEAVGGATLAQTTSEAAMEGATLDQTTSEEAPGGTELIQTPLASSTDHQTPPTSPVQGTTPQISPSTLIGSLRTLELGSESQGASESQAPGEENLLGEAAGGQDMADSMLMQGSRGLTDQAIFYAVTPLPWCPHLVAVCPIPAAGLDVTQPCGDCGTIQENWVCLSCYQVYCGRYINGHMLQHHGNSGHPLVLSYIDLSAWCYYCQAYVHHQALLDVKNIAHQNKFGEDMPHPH
Put plainly: HDAC6 enzyme activity inhibition assay (HDAC Fluorimetric Drug Discovery Kit). The format is biochemical. The settings on record: for HDAC6 selectivity (fold): HDAC6 over HDAC1; for IC50: human recombinant HDAC6, same protocol as HDAC1, read-out: HDAC6. Put shortly:
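Fluorimetric deacetylase assay: 5-fold serial compound dilutions, 0.3 μg recombinant human enzyme (HDAC1 or HDAC6, same protocol), 10 μM Fluor de Lys-SIRT1 substrate, 60 min at 30 °C. Signal developed 30 min, measured at 360/460 nm; IC50 values derived.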

In the case of `CN(C)[C@H]1CCN(C(=O)N(Cc2ccc(-c3nnc(C(F)F)o3)cn2)c2ccc(F)c(Cl)c2)C1` [Compound 21601, (S)—N-(3-chloro-4-fluorophenyl)-N-((5-(5-(difluoromethyl)-1,3,4-oxadiazol-2-yl)pyridin-2-yl)methyl)-3-(dimethylamino)pyrrolidine-1-carboxamide], the “HDAC6 selectivity (fold)” value came to 192 fold and the IC50 is 52 nM.

Take `CN(C)[C@@H]1CCN(C(=O)N(Cc2ccc(-c3nnc(C(F)F)o3)cn2)c2ccc(F)c(Cl)c2)C1` [Compound 21602, (R)—N-(3-chloro-4-fluorophenyl)-N-((5-(5-(difluoromethyl)-1,3,4-oxadiazol-2-yl)pyridin-2-yl)methyl)-3-(dimethylamino)pyrrolidine-1-carboxamide]: the “HDAC6 selectivity (fold)” value came to 526 fold and the IC50 was determined as 19 nM.

Consider `O=C(N1CCOCC1)N(Cc1ccc(-c2nnc(C(F)F)o2)cn1)c1ccc(F)c(Cl)c1` [Compound 21619, N-(3-chloro-4-fluorophenyl)-N-((5-(5-(difluoromethyl)-1,3,4-oxadiazol-2-yl)pyridin-2-yl)methyl)morpholine-4-carboxamide], for which the “HDAC6 selectivity (fold)” value is recorded as 517 fold and the IC50 worked out at 19 nM.

As to `CN1CCN(C(=O)N(Cc2ccc(-c3nnc(C(F)F)o3)cn2)c2ccc(F)c(Cl)c2)CC1` [Compound 21620, N-(3-chloro-4-fluorophenyl)-N-((5-(5-(difluoromethyl)-1,3,4-oxadiazol-2-yl)pyridin-2-yl)methyl)-4-methylpiperazine-1-carboxamide], the “HDAC6 selectivity (fold)” value came out at 383 fold and the IC50 came out at 26 nM.

As to `CN1CCN(c2cccc(N(Cc3ccc(-c4nnc(C(F)F)o4)cc3)C(=O)N3CCS(=O)(=O)CC3)c2)CC1` [Compound 21621, N-(4-(5-(difluoromethyl)-1,3,4-oxadiazol-2-yl)benzyl)-N-(3-(4-methylpiperazin-1-yl)phenyl)thiomorpholine-4-carboxamide 1,1-dioxide], the “HDAC6 selectivity (fold)” value came to 16 fold and the IC50 is 637 nM.

For the compound `COc1cccc(N(Cc2ccc(-c3nnc(C(F)F)o3)cn2)C(=O)N2CCN(C)CC2)c1` [Compound 21622, N-((5-(5-(difluoromethyl)-1,3,4-oxadiazol-2-yl)pyridin-2-yl)methyl)-N-(3-methoxyphenyl)-4-methylpiperazine-1-carboxamide], the “HDAC6 selectivity (fold)” value stood at 226 fold and the IC50 came out at 44 nM.

Turning to `COc1ccc(N(Cc2ccc(-c3nnc(C(F)F)o3)cn2)C(=O)N2CCN(C)CC2)cc1` [Compound 21623, N-((5-(5-(difluoromethyl)-1,3,4-oxadiazol-2-yl)pyridin-2-yl)methyl)-N-(4-methoxyphenyl)-4-methylpiperazine-1-carboxamide], the “HDAC6 selectivity (fold)” value was determined as 290 fold and the IC50 came out at 35 nM.

In the case of `CCN1CCN(C(=O)N(Cc2ccc(-c3nnc(C(F)F)o3)cn2)c2ccccc2)CC1` [Compound 21624, N-((5-(5-(difluoromethyl)-1,3,4-oxadiazol-2-yl)pyridin-2-yl)methyl)-4-ethyl-N-phenylpiperazine-1-carboxamide], the “HDAC6 selectivity (fold)” value stood at 347 fold and the IC50 amounted to 29 nM.

Turning to `O=C(N1CCS(=O)(=O)CC1)N(Cc1ccc(-c2nnc(C(F)F)o2)cn1)c1ccccc1F` [Compound 21625, N-((5-(5-(difluoromethyl)-1,3,4-oxadiazol-2-yl)pyridin-2-yl)methyl)-N-(2-fluorophenyl)thiomorpholine-4-carboxamide 1,1-dioxide], the “HDAC6 selectivity (fold)” value is recorded as 422 fold and the IC50 turned out to be 24 nM.

For `O=C(N1CCS(=O)(=O)CC1)N(Cc1ccc(-c2nnc(C(F)F)o2)cn1)c1cccc(Cl)c1` [Compound 21626, N-(3-chlorophenyl)-N-((5-(5-(difluoromethyl)-1,3,4-oxadiazol-2-yl)pyridin-2-yl)methyl)thiomorpholine-4-carboxamide 1,1-dioxide], the “HDAC6 selectivity (fold)” value worked out at 645 fold and the IC50 amounted to 16 nM.

On to `CN1CCN(c2cccc(N(Cc3ccc(-c4nnc(C(F)F)o4)cn3)C(=O)N3CCS(=O)(=O)CC3)c2)CC1` [Compound 21627, N-((5-(5-(difluoromethyl)-1,3,4-oxadiazol-2-yl)pyridin-2-yl)methyl)-N-(3-(4-methylpiperazin-1-yl)phenyl)thiomorpholine-4-carboxamide 1,1-dioxide], for which the “HDAC6 selectivity (fold)” value is given as 22 fold and the IC50 was 457 nM.

Regarding `CN1CCN(c2ccc(N(Cc3ccc(-c4nnc(C(F)F)o4)cn3)C(=O)N3CCS(=O)(=O)CC3)cc2)CC1` [Compound 21628, N-((5-(5-(difluoromethyl)-1,3,4-oxadiazol-2-yl)pyridin-2-yl)methyl)-N-(4-(4-methylpiperazin-1-yl)phenyl)thiomorpholine-4-carboxamide 1,1-dioxide], the “HDAC6 selectivity (fold)” value is on record as 37 fold and the IC50 came out at 271 nM.

Turning to `CCN1CCN(C(=O)N(Cc2ccc(-c3nnc(C(F)F)o3)cn2)c2ccc(F)c(Cl)c2)CC1` [Compound 21629, N-(3-chloro-4-fluorophenyl)-N-((5-(5-(difluoromethyl)-1,3,4-oxadiazol-2-yl)pyridin-2-yl)methyl)-4-ethylpiperazine-1-carboxamide], the “HDAC6 selectivity (fold)” value is listed as 880 fold and the IC50 came to 11 nM.

As to `O=C(N1CCOCC1)N(Cc1ccc(-c2nnc(C(F)F)o2)cn1)c1ccccc1` [Compound 21630, N-((5-(5-(difluoromethyl)-1,3,4-oxadiazol-2-yl)pyridin-2-yl)methyl)-N-phenylmorpholine-4-carboxamide], the “HDAC6 selectivity (fold)” value came out at 549 fold and the IC50 was 18 nM.

In the case of `O=C(N1CCS(=O)(=O)CC1)N(Cc1ccc(-c2nnc(C(F)F)o2)cn1)c1ccc(Oc2ccccc2)cc1` [Compound 21631, N-((5-(5-(difluoromethyl)-1,3,4-oxadiazol-2-yl)pyridin-2-yl)methyl)-N-(4-phenoxyphenyl)thiomorpholine-4-carboxamide 1,1-dioxide], the “HDAC6 selectivity (fold)” value came out at 138 fold and the IC50 worked out at 72 nM.

Take `Cc1ccccc1N(Cc1ccc(-c2nnc(C(F)F)o2)cn1)C(=O)N1CCN(C)CC1` [Compound 21632, N-((5-(5-(difluoromethyl)-1,3,4-oxadiazol-2-yl)pyridin-2-yl)methyl)-4-methyl-N-(o-tolyl)piperazine-1-carboxamide]: the “HDAC6 selectivity (fold)” value was 245 fold and the IC50 was 41 nM.

Turning to `Cc1ccccc1N(Cc1ccc(-c2nnc(C(F)(F)F)o2)cn1)C(=O)N1CCN(C)CC1` [Compound 21633, 4-Methyl-N-(o-tolyl)-N-((5-(5-(trifluoromethyl)-1,3,4-oxadiazol-2-yl)pyridin-2-yl)methyl)piperazine-1-carboxamide], the “HDAC6 selectivity (fold)” value stood at 58 fold and the IC50 stood at 173 nM.

Turning to `CN1CCN(C(=O)N(Cc2ccc(-c3nnc(C(F)(F)F)o3)cn2)c2ccccc2F)CC1` [Compound 21634, N-(2-fluorophenyl)-4-methyl-N-((5-(5-(trifluoromethyl)-1,3,4-oxadiazol-2-yl)pyridin-2-yl)methyl)piperazine-1-carboxamide], the “HDAC6 selectivity (fold)” value was found to be 83 fold and the IC50 was 120 nM.

Take `CN(C)[C@H]1CCN(C(=O)N(Cc2ccc(-c3nnc(C(F)F)o3)cc2F)c2cccc(Cl)c2F)C1` [Compound 21643, (S)—N-(3-chloro-2-fluorophenyl)-N-(4-(5-(difluoromethyl)-1,3,4-oxadiazol-2-yl)-2-fluorobenzyl)-3-(dimethylamino)pyrrolidine-1-carboxamide]: the “HDAC6 selectivity (fold)” value stood at 352 fold and the IC50 came out at 28 nM.

With `CN(C)[C@H]1CCN(C(=O)N(Cc2ccc(-c3nnc(C(F)(F)F)o3)cc2F)c2cccc(Cl)c2F)C1` [Compound 21644, (S)—N-(3-chloro-2-fluorophenyl)-3-(dimethylamino)-N-(2-fluoro-4-(5-(trifluoromethyl)-1,3,4-oxadiazol-2-yl)benzyl)pyrrolidine-1-carboxamide], the “HDAC6 selectivity (fold)” value came to 74 fold and the IC50 amounted to 135 nM.
